This note sets out measurements from US20160214956A1, “NOVEL SOLUBLE GUANYLATE CYCLASE ACTIVATORS AND THEIR USE” (GLAXOSMITHKLINE INTELLECTUAL PROPERTY DEVELOPMENT LIMITED, priority 2013, published 2016).

SMILES strings stand for the structures.

This experiment has as its target T1, human sGC (Homo sapiens, UniProt Q02153).
T1 sequence (Q02153 1-619): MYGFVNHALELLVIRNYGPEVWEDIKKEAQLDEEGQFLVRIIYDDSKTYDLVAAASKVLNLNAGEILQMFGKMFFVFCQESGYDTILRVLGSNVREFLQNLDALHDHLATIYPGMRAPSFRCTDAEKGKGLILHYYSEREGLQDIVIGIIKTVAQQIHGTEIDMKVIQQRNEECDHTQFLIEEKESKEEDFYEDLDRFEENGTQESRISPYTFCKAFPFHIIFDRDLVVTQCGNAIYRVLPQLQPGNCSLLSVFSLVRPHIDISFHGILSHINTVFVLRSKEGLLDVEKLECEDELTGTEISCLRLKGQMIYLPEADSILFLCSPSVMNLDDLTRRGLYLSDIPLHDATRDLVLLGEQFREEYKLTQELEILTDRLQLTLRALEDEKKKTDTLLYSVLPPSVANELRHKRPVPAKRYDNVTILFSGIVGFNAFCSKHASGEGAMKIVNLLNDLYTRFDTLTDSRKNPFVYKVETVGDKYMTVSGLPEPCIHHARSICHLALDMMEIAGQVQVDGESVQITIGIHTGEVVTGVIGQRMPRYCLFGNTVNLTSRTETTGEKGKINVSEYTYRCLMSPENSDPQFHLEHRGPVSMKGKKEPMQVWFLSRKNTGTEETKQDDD
T1 sequence (Q02108 1-690 partner): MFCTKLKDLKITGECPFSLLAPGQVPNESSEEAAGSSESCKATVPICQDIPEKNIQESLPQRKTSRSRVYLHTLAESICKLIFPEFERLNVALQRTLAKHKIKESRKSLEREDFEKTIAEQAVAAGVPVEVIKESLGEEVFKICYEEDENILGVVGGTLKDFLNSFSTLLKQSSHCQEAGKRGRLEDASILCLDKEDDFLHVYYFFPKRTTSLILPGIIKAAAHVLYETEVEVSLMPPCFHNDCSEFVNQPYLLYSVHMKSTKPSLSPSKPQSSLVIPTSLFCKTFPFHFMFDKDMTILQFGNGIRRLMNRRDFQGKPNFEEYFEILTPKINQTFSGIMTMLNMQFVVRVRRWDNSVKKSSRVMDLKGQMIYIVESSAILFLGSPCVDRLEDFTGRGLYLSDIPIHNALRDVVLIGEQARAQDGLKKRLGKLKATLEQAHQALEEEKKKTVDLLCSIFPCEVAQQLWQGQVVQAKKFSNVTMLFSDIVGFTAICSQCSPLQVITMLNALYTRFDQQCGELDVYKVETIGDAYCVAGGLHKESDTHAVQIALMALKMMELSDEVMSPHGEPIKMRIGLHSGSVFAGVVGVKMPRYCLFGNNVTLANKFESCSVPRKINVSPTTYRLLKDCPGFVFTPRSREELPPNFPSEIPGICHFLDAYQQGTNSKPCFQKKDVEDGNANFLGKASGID
As to the kind of experiment: sGC enzyme assay, fluorescence polarisation of labelled cGMP. It is filed as biochemical. Conditions: human sGC 1 nM, FP assay; concentration able to increase by 5-fold basal cGMP. As for the experimental part:
The activity of soluble guanylate cyclase (sGC) was tested in an assay based on measuring the fluorescent polarisation (FP) signal of fluorescently labelled cGMP. FP increased on interaction with an anti-cGMP antibody as the motility of the molecule was reduced. Newly produced cGMP displaced the interaction giving rise to a decrease in polarisation and FP signal which was equated to enzyme activity. Compounds were incubated with human sGC, anti-cGMP antibody, the GTP substrate and fluorescently labelled cGMP. After a period of one hour the assay was stopped with the addition of EDTA and after a further hour the assay was read.
Human sGC was thawed and resuspended in assay buffer (100 mM TRIS, 10 mM MgCl2, 0.2 mM Tween 20, pH7.4, containing 1:100 dilution of sheep anti-cGMP) to give final concentration of 1 nM in the well. A substrate solution was prepared containing GTP and 8-fluo-cGMP in de-ionized water to a final concentration of 25 μM and 50 nM respectively. Assay plates containing 5 μL of various test compounds and of a standard agonist (50 μM-50 nM) in 1% DMSO as 6 point, four fold dilutions across a 96 well plate were used in the assay. The plate also contained 6 wells of DMSO (1%) to produce high control and a cGMP standard curve (14 nM to 10 μM) to convert FP data to cGMP concentration. 25 μL of enzyme mix and 20 μl of substrate mix described above were added to each well of the plate. Samples were mixed on an orbital shaker and then incubated at room temperature for 1 hour. After this incubation period 5 μl of 0.5M EDTA was added to all wells and the plates were incubated for a further hour at room temperature prior to reading the FP signal in an appropriate reader. For data handling FP data were converted to cGMP concentrations and then fitted using ActivityBase software. The activity of a test compound was determined as the pEC500 value which is the concentration able to increase by 5-fold basal cGMP.
In general terms: Fluorescence polarisation rises when a labelled molecule tumbles more slowly, as on binding a larger partner.

For `COCCOc1ccc(COc2ccccc2-c2cccc(-n3ncc(C(=O)O)c3C(F)(F)F)n2)cc1` [Example 4, 1-(6-(2-((4-(2-methoxyethoxy)benzyl)oxy)phenyl)pyridin-2-yl)-5-(trifluoromethyl)-1H-pyrazole-4-carboxylic acid], the “sGC pEC500” value is 6.6.
Consider `COCCCOc1ccc(COc2ccccc2-c2cccc(-n3ncc(C(=O)O)c3C(F)(F)F)n2)cc1` [Example 7, 1-(6-(2-((4-(3-methoxypropoxy)benzyl)oxy)phenyl)pyridin-2-yl)-5-(trifluoromethyl)-1H-pyrazole-4-carboxylic acid], for which the “sGC pEC500” value is given as 7.1.
To `N#CCCCOc1ccc(COc2ccccc2-c2cccc(-n3ncc(C(=O)O)c3C(F)(F)F)n2)cc1` [Example 8, 1-(6-(2-((4-(3-cyanopropoxy)benzyl)oxy)phenyl)pyridin-2-yl)-5-(trifluoromethyl)-1H-pyrazole-4-carboxylic acid] belongs 7.28; to `Cc1cc(OCCCC(=O)O)ccc1COc1ccccc1-c1cccc(-n2ncc(C(=O)O)c2C(F)(F)F)n1` [Example 12, 1-(6-(2-((4-(3-carboxypropoxy)-2-methylbenzyl)oxy)phenyl)pyridin-2-yl)-5-(trifluoromethyl)-1H-pyrazole-4-carboxylic acid], 6.59.
